Laboratory results from BindingDB's records for PubMed 10869375 (R. W. Johnson Pharmaceutical Research Institute, 2000).
Several values for one entry are separate records, joined by “and”; a condition that tells them apart may be missing. Equal values may be shown once.

Columns and labels:
Hrh3 protein = Hrh3 protein (Rattus norvegicus, UniProt Q5PPG3)
Histamine H3 receptor = Histamine H3 receptor (Homo sapiens, UniProt Q9Y5N1)
Sequence of Histamine H3 receptor (Q9Y5N1 whole entry): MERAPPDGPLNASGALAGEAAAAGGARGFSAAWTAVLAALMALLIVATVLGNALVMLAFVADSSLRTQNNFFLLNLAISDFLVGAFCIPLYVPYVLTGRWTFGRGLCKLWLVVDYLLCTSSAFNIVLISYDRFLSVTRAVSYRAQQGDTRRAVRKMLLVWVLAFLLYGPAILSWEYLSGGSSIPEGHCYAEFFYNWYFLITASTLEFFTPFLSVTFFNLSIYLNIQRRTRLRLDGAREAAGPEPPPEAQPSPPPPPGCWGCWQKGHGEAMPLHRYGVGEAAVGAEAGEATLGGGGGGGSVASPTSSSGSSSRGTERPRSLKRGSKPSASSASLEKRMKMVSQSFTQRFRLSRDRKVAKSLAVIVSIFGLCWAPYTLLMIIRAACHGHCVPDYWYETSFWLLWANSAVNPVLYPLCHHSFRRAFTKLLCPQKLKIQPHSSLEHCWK

Sequence of Hrh3 protein (Q5PPG3 whole entry): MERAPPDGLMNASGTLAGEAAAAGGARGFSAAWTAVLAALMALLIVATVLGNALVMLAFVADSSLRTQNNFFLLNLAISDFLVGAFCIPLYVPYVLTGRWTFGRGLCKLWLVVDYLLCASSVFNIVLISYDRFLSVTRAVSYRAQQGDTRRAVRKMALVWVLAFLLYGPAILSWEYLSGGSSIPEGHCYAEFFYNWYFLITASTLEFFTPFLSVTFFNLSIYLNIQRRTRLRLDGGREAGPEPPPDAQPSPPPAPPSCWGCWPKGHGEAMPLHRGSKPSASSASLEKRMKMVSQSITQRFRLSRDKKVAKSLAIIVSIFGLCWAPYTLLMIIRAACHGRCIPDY

S=C(NC1CCCCC1)N1CCC(c2cnc[nH]2)CC1 was tested. Which Ki (Hrh3 protein) did it give?
Its Ki is 10.2 nM and 4.2 nM.

Which Ki (Hrh3 protein) does the source give for N=C(N)SCCc1cnc[nH]1 [2-(3H-imidazol-4-yl)ethylsulfanylmethanimidamide] here?
The Ki was 0.2 nM.

What about the Ki (Histamine H3 receptor) of the same compound?
The Ki was 0.6 nM.

Which Ki (Hrh3 protein) does the source give for c1nc(CC2CCNCC2)c[nH]1 [4-(1H-imidazol-4-ylmethyl)piperidine] here?
Its Ki is 0.5 nM and 1.4 nM.

What about the Ki (Histamine H3 receptor) of the same compound?
The Ki was 1.6 nM.

With CN1CCN(C2=c3ccccc3=Nc3ccc(Cl)cc3N2)CC1 [6-chloro-10-(4-methylpiperazin-1-yl)-2,9-diazatricyclo[9.4.0.0^{3,8}]pentadeca-1,3(8),4,6,10,12,14-heptaene] as the compound, how does the Ki (Hrh3 protein) read?
The Ki was 3000 nM and 1750 nM.

For CNCCc1c[nH]cn1 [N(alpha)-Methylhistamine], which Ki (Hrh3 protein) is on record?
Its Ki is 1.2 nM and 1.5 nM.

And the Ki (Histamine H3 receptor)?
The Ki was 2.4 nM.

With NCCc1c[nH]cn1 [[3H]histamine] as the compound, how does the Ki (Hrh3 protein) read?
The Ki was 12 nM and 13.2 nM.
